{"source": "patent US20040186098A1", "about": "(Amgen Inc., priority 1997, published 2004)", "key": {"[1]": {"biological_target": "FKBP12 (Homo sapiens, UniProt P62942)", "sequence (P62942 whole entry, species assumed)": "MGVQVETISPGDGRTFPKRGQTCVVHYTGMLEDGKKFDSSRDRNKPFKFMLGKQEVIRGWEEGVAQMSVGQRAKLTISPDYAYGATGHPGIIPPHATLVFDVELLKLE", "assay": "Ki test procedure: inhibition of peptidyl-prolyl isomerase (rotamase) activity of FKBP12, chymotrypsin-coupled assay", "assay_type": "biochemical", "conditions": "apparent Ki", "description": "The inhibition of the prolyl peptidyl cis-trans isomerase activity of FKBP may be measured as an indicator of this affinity.\nThe binding to FBKP12 and inhibition of the peptidyl-prolyl isomerase (rotamase) activity of the compounds used in the inventive methods and pharmaceutical compositions can be evaluated by known methods described in the literature (Harding et al., Nature, 1989, 341:758-760; Holt et al. J. Am. Chem. Soc., 115:9923-9938).\nThe cis-trans isomerization of an alanine-proline bond in a model substrate, N-succinyl-Ala-Ala-Pro-Phe-p-nitroanilide, is monitored spectrophotometrically in a chymotrypsin-coupled assay, which releases para-nitroanilide from the trans form of the substrate. The inhibition of this reaction caused by the addition of different concentrations of inhibitor is determined, and the data is analyzed as a change in first-order rate constant as a function of inhibitor concentration to yield the apparent Ki values.\nIn a plastic cuvette are added […] of ice cold assay buffer (25 mM HEPES, pH 7.8, 100 mM NaCl), 10 mL of FKBP (2.5 mM in 10 mM Tris-Cl pH 7.5, 100 mM NaCl, 1 mM dithiothreitol), […] of chymotrypsin (50 mg/ml in 1 mM HCl) and […] of test compound at various concentrations in dimethyl sulfoxide. The reaction is initiated by the addition of 5 mL of substrate (succinyl-Ala-Phe-Pro-Phe-para-nitroanilide, 5 mg/mL in 2.35 mM LiCl in trifluoroethanol).\nThe absorbance at 390 nm versus time is monitored for 90 seconds using a spectrophotometer and the rate constants are determined from the absorbance versus time data files."}, "[2]": {"tested_on": "outer hair cells (OHC)", "assay": "Intramiddle ear neomycin-induced ototoxicity, compound given into the middle ear, outer hair cell loss", "assay_type": "in vivo, guinea pig", "conditions": "10 ng in the middle ear", "protocol": "Twenty guinea pigs used in this study were divided into two groups: 10 animals received 10 ng and 10 received 1 ng of the sensorineurotrophic compound.\nSensorineurotrophic compound stock A: A stock solution of sensorineurotrophic compound at 1 mg/10 ml in 100% ethanol was prepared and then diluted and mixed in Intralipid at 10 ng/100 μl.\nSensorineurotrophic compound stock B: A stock solution of sensorineurotrophic compound at 1 mg/100 ml in 100% ethanol was prepared and then diluted and mixed in 20% Intralipid at 1 ng/100 μl.\nAnimals were anesthetized with an intramuscular injection of a mixture of ketamine (80 mg/kg) and xylazine (4 mg/kg). Through a post-auricular incision, the right bulla was identified. A hole was drilled to open the middle ear cavity (care was taken not to injure the tympanic annulus or ossicles). A piece of gelfoam (˜2 mm^3) soaked with the sensorineurotrophic compound solution was inserted into the round window niche. The remaining sensorineurotrophic compound solution (˜100 μl) then was injected into the middle ear cavity. In the 10 ng dose group, 100 μl of sensorineurotrophic compound stock A was administered; and in the 1 ng dose group, 100 μl of sensorineurotrophic compound stock B was administered to the middle ear cavity. The hole was covered with a piece of clear plastic sheet which was stuck on the skull with a superglue. The incision was closed with clips. The same procedure was performed at the left bulla, but 100 μl of vehicle solution instead of sensorineurotrophic compound solution was administered. The animals were maintained in the prone position until they woke up to ensure filling of the middle ear cavity.\nAfter two days, the animals received a second middle ear administration of sensorineurotrophic compound or vehicle together with neomycin. Solutions were prepared for the two groups of animals as follows:\nSolution A: Neomycin was dissolved in sensorineurotrophic compound stock A described above. The final concentration of neomycin was 5 mg and the sensorineurotrophic compound concentration was 10 ng in a 100 μl vehicle solution.\nSolution B: Neomycin was dissolved in sensorineurotrophic compound stock B described above. The final concentration of neomycin was 5 mg and the concentration of sensorineurotrophic compound was 1 ng in a 100 μl vehicle solution.\nSolution C: Neomycin was dissolved in 20% Intralipid to a final concentration of 5 mg in 100 μl vehicle.\nThe plastic cover sheet on the bulla window was removed and the middle ear cavity was exposed. The old sensorineurotrophic compound or vehicle was sucked off and the old gelfoam was removed from the round window niche. A piece of gelfoam with fresh stock solution containing sensorineurotrophic compound and neomycin was administered to the round window niche, and the remaining solution (˜100 μl, solution A for the 10 ng dose group and solution B for the 1 ng dose group, respectively) was injected into the middle ear cavity of the right bulla.\nSolution C (100 μl) was administered to the left ear for both groups in the same way.\nFourteen days after the second surgery, animals were perfused transcardially with a PBS flush followed by a fixative of 4% paraformaldehyde in 0.1M PBS. Immediately following the perfusion, the temporal bone was removed from the head. The bulla was opened and the cochlea was exposed. The apex was opened and the membrane of the round and oval windows was punched. The fixative solution was gently infused into the perilymphatic space through the apex hole and then allowed to flow out from windows. Then the cochleae were post-fixed in the same fixative solution for at least one day.\nTo identify and count hair cells in the organ of Corti, a direct immunostaining method was used to label the actin present naturally in the stereocilia bundles of the hair cells. The cochlea was dissected and the perilymphatic space was fully exposed. […]"}, "[3]": {"tested_on": "Preyer's reflex", "assay": "Cisplatin-induced ototoxicity, compound given systemically, Preyer's reflex monitoring", "assay_type": "in vivo, guinea pig", "conditions": "30 mg/kg s.c. daily, cisplatin 4 mg/kg i.p. x4; 10 days after the 4th injection; vehicle group more than 80%", "protocol": "Twenty male pigmented guinea pigs were divided into two groups (10 in each). One group was treated with Compound XXV while the other with vehicle—2 days prior to the first cisplatin injection. The test compound or vehicle was delivered by daily sub-cutaneous injection. On the day of injection, 100 mg of Compound XXV was dissolved in 1 ml of ethanol, then added to 20% Intralipid solution to a final volume of 3 ml and final Compound XXV concentration of 10 mg/0.3 ml. Each animal was subcutaneously injected with 30 mg/kg of Compound XXV solution Two days after the beginning of test compound injections (d2), cisplatin intraperitoneal injection was given to all animals at 4 mg/kg. After 3 days, a second cisplatin injection was given to all animals (d5). After another 3 days, a third injection (d8) and after 3 more days the fourth and last injection of cisplatin was given (d11). Test compound injections continued daily until day 21 (10 days after the last cisplatin injection).\nPreyers' reflex is a rough indication of hearing function in rodents. […] The animals in this experiment were monitored daily for their Preyer's reflex. […]\nDetermination of hair cell numbers was determined in the same manner as in Example 4."}, "[4]": {"conditions": "rotamase inhibition, Table XLI, Formulas I to XIV"}}, "data": [{"molecule": "O=C(C(=O)N1CCCCC1C(=O)SCCc1ccccc1)c1ccccc1", "note": "(stereo not shown) [Compound 14]", "values": [{"measurement": "Ki", "setting": "[1]; [4]", "value": 313, "unit": "nM"}]}, {"molecule": "O=C(C(=O)N1CCC[C@H]1C(=O)SCCc1ccccc1)C1CCCC1", "note": "[Compound 28, 2-Phenyl-1-ethyl (2S)-1-(1-cyclopentyl-1,2-dioxoethyl)-2-pyrrolidinecarbothioate]", "values": [{"measurement": "Ki", "setting": "[1]; [4]", "value": 108, "unit": "nM"}]}, {"molecule": "CCC(C)(C)C(=O)C(=O)N1CSC[C@@H]1C(=O)OCCCc1ccccc1", "note": "[Compound 80, 3-phenyl-1-propyl(2S)-1-(3,3-dimethyl-1,2-dioxopentyl)-2-(4-thiazolidine)carboxylate]", "values": [{"measurement": "Ki", "setting": "[1]; [4]", "value": 215, "unit": "nM"}]}, {"molecule": "CCC(C)(C)NC(=O)N1CCCC1C(=O)SCCCc1ccc(OC)cc1", "note": "(stereo not shown) [Compound 103]", "values": [{"measurement": "Ki", "setting": "[1]; FKBP12 rotamase inhibition", "value": "51 to 200", "unit": "nM"}]}, {"molecule": "O=C(SCCCc1cccnc1)C1CCCN1C(=S)NC12CC3CC(CC(C3)C1)C2", "note": "(stereo not shown) [Compound 108]", "values": [{"measurement": "Ki", "setting": "[1]; FKBP12 rotamase inhibition", "value": "1 to 50", "unit": "nM"}]}, {"molecule": "O=C(SC(CCc1ccccc1)CCc1ccccc1)C1CCCCN1C(=O)Nc1ccccc1", "note": "(stereo not shown) [Compound 113]", "values": [{"measurement": "Ki", "setting": "[1]; FKBP12 rotamase inhibition", "value": "1 to 50", "unit": "nM"}]}, {"molecule": "CCC(C)(C)C(=O)C(=O)N1CCC[C@H]1C(=O)SCCC(c1ccccc1)c1ccccc1", "note": "[Compound XVI]", "values": [{"measurement": "difference in the number of OHCs lost, vehicle vs compound (FIG. 8)", "setting": "[2]; 5 mg neomycin, group mean", "value": "over 50%"}, {"measurement": "loss of hair cells in the second turn (turn 3), in words", "setting": "[2]; neomycin (FIG. 9)", "value": "completely prevent the loss"}, {"measurement": "loss of hair cells in the basal turn (turn 4)", "setting": "[2]; neomycin, vehicle almost 100% (FIG. 9)", "value": "around 30%"}]}, {"molecule": "CCC(C)(C)C(=O)C(=O)N1CCCCC1C(=O)SCCC(c1ccccc1)c1ccccc1", "note": "(stereo not shown) [Compound XXV]", "values": [{"measurement": "animals that lost Preyer's reflex", "setting": "[3]", "value": "about 20 % of the animals"}]}]}
